Results reported in ChEMBL document CHEMBL3797199, “Anti-gout nor-oleanane triterpenoids from the leaves of Stauntonia brachyanthera” (Bioorg Med Chem Lett, 2016).

The compounds below were run against Xanthine dehydrogenase/oxidase (Bos taurus, UniProt P80457) (assay: Inhibition of bovine milk xanthine oxidase using xanthine as substrate preincubated for 15 mins followed by substrate addition by spectrophotometric method).
Xanthine dehydrogenase/oxidase, sequence (P80457 whole entry): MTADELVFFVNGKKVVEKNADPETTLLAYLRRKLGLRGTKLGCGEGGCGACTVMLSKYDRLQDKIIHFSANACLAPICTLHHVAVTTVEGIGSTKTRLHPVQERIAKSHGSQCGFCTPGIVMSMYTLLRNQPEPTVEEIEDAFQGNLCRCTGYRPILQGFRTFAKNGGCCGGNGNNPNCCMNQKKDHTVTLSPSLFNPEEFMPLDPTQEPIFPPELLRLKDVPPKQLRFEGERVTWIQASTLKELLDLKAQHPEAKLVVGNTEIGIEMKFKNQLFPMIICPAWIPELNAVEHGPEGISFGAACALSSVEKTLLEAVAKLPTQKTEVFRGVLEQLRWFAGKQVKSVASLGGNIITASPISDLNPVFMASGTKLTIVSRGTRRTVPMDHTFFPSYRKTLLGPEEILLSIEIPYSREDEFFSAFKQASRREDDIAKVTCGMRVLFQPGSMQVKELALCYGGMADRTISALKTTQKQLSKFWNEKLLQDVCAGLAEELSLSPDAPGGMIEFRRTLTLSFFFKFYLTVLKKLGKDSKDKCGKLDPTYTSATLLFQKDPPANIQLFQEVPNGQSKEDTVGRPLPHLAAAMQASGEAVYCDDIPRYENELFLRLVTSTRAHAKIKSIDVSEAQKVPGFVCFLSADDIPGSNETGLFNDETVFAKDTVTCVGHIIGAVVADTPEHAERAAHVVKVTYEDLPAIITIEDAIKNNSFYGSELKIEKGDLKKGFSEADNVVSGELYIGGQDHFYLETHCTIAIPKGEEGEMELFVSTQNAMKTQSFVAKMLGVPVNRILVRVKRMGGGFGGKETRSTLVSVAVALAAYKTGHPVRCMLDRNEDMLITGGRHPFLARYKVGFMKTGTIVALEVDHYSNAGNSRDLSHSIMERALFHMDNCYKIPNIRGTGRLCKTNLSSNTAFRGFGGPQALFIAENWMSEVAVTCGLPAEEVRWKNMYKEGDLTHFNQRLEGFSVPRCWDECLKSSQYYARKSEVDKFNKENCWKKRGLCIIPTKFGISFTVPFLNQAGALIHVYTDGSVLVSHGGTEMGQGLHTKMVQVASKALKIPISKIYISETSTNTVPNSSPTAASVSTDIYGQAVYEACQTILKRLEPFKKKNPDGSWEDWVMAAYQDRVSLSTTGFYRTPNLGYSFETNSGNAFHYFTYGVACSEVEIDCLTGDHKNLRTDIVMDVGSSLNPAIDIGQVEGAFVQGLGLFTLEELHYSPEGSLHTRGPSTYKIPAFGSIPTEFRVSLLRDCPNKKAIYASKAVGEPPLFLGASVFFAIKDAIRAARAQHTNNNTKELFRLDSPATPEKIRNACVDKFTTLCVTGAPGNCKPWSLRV

IC50 | Structure (SMILES)
49.2 µM | C[C@]12CC[C@H](O)[C@](C)(CO[C@@H]3O[C@H](CO)[C@@H](O)[C@H](O)[C@H]3O)[C@@H]1CC[C@]1(C)[C@@H]2CC=C2[C@@H]3C[C@](C)(C(=O)O)[C@@H](O)C[C@]3(C(=O)O)CC[C@]21C
18.5 µM | C=C1CC[C@]2(C(=O)O)CC[C@]3(C)C(=CC[C@@H]4[C@@]5(C)CC[C@H](O[C@@H]6OC[C@H](O)[C@H](O)[C@H]6O[C@@H]6O[C@@H](C)[C@H](O)[C@@H](O)[C@H]6O)C(C)(C)[C@@H]5CC[C@]43C)[C@@H]2C1
79.6 µM | C=C1CC[C@]2(C(=O)O[C@@H]3O[C@H](CO[C@@H]4O[C@H](CO)[C@@H](O)[C@H](O)[C@H]4O)[C@@H](O)[C@H](O)[C@H]3O)CC[C@]3(C)C(=CC[C@@H]4[C@@]5(C)CC[C@H](O[C@@H]6OC[C@H](O)[C@H](O)[C@H]6O)[C@@](C)(CO)[C@@H]5CC[C@]43C)[C@@H]2C1
> 100 µM | C[C@]12C[C@@H](O)[C@H](O)[C@](C)(CO)[C@@H]1CC[C@]1(C)[C@@H]2CC=C2[C@@H]3C[C@](C)(C(=O)O)[C@@H](O)C[C@]3(C(=O)O)CC[C@]21C
91.3 µM | C=C1CC[C@]2(C(=O)O[C@@H]3O[C@H](CO[C@@H]4O[C@H](CO)[C@@H](O[C@@H]5O[C@@H](C)[C@H](O)[C@@H](O)[C@H]5O)[C@H](O)[C@H]4O)[C@@H](O)[C@H](O)[C@H]3O)CC[C@]3(C)C(=CC[C@@H]4[C@@]5(C)CC[C@H](O[C@@H]6OC[C@H](O)[C@H](O[C@@H]7O[C@H](C(=O)O)[C@@H](O)[C@H](O)[C@H]7O)[C@H]6O)[C@@](C)(CO)[C@@H]5CC[C@]43C)[C@@H]2C1
> 100 µM | C=C1CC[C@]2(C(=O)O[C@@H]3O[C@H](CO[C@@H]4O[C@H](CO)[C@@H](O)[C@H](O)[C@H]4O)[C@@H](O)[C@H](O)[C@H]3O)CC[C@]3(C)C(=CC[C@@H]4[C@@]5(C)CC[C@H](O[C@@H]6OC[C@H](O)[C@H](O[C@@H]7OC[C@H](O)[C@H](O)[C@H]7O)[C@H]6O)C(C)(C)[C@@H]5CC[C@]43C)[C@@H]2C1
> 100 µM | C=C1CC[C@@]2(C(=O)O[C@@H]3O[C@H](CO[C@@H]4O[C@H](CO)[C@@H](O)[C@H](O)[C@H]4O)[C@@H](O)[C@H](O)[C@H]3O)CC[C@@]3(C)C(=CC[C@H]4[C@]5(C)CC[C@@H](O[C@@H]6OC[C@H](O)[C@H](O)[C@H]6O[C@@H]6OC[C@H](O)[C@H](O[C@H]7OC[C@@H](O)[C@@H](O)[C@@H]7O)[C@H]6O)C(C)(C)[C@H]5CC[C@@]43C)[C@H]2C1
> 100 µM | C[C@@H]1O[C@@H](O[C@@H]2[C@@H](O[C@H]3CC[C@]4(C)[C@H]5CC=C6[C@@H]7C[C@H](CO)CC[C@]7(C(=O)O[C@H]7O[C@@H](CO[C@@H]8O[C@H](CO)[C@@H](O[C@@H]9O[C@@H](C)[C@H](O)[C@@H](O)[C@H]9O)[C@H](O)[C@H]8O)[C@H](O)[C@@H](O)[C@@H]7O)CC[C@@]6(C)[C@]5(C)CC[C@H]4C3(C)C)OC[C@@H](O)[C@H]2O)[C@H](O)[C@H](O)[C@H]1O
> 100 µM | C=C1CC[C@]2(C(=O)O[C@H]3O[C@@H](CO[C@@H]4O[C@H](CO)[C@@H](O[C@@H]5O[C@@H](C)[C@H](O)[C@@H](O)[C@H]5O)[C@H](O)[C@H]4O)[C@H](O)[C@@H](O)[C@@H]3O)CC[C@]3(C)C(=CC[C@@H]4[C@@]5(C)CC[C@H](O[C@H]6OC[C@@H](O)[C@@H](O[C@H]7OC[C@@H](O)[C@@H](O)[C@@H]7O[C@@H]7OC[C@@H](O)[C@H](O[C@H]8OC[C@@H](O)[C@@H](O)[C@@H]8O)[C@H]7O)[C@@H]6O)C(C)(C)[C@@H]5CC[C@]43C)[C@@H]2C1
0.2 µM | C[C@H]1O[C@@H](O[C@H]2[C@H](OC[C@]3(C)[C@@H]4CC[C@]5(C)[C@H](CC=C6[C@@H]7C[C@](C)(O)[C@@H](O)C[C@]7(C(=O)O)CC[C@]65C)[C@@]4(C)CC[C@@H]3O)O[C@H](CO)[C@@H](O)[C@@H]2O)[C@H](O)[C@@H](O)[C@@H]1O
> 100 µM | C=C1CC[C@]2(C(=O)O[C@H]3O[C@@H](CO[C@H]4O[C@@H](CO)[C@H](O)[C@@H](O)[C@@H]4O)[C@H](O)[C@@H](O)[C@@H]3O)CC[C@]3(C)C(=CC[C@@H]4[C@@]5(C)CC[C@H](O[C@H]6OC[C@@H](O)[C@@H](O)[C@@H]6O[C@@H]6O[C@@H](C)[C@H](O)[C@@H](O[C@H]7OC[C@@H](O)[C@@H](O)[C@@H]7O)[C@H]6O)C(C)(C)[C@@H]5CC[C@]43C)[C@@H]2C1
